Laboratory results: US20080312435A1, “Imine Compound” (TAISHO PHARMACEUTICAL CO., LTD., priority 2004, published 2008)
pIC50: −log10 of the molar value.

Tests used:
[1] = target: T1, human CB2 receptor (Homo sapiens, UniProt P34972); experiment: Human CB2 receptor binding inhibition test ([3H]CP-55,940, CHO membrane fractions); details: [3H]CP-55,940, membrane fractions of CHO cells stably expressing human CB2 receptor, 25° C., 2 hours; read-out: CB2 IC50 (Inhibition of binding to human CB2 receptor)
T1 construct: expressed in transfected cells
Text: Human CB2 Receptor Binding Inhibition Test
First, cDNA sequence (Munro et al., Nature, 1993, 365, 61-65) encoding a human CB2 receptor was inserted in the forward direction in an animal-cell expression vector, pTARGET Vector (manufactured by Promega) at a region downstream of a CMV promoter. Host cells CHO-DHFR(−) were transfected with the obtained expression vector with the aid of Lipofectamine (manufactured by Invitrogen) to obtain cells capable of stably expressing the CB2 receptor.
After the filtrate was washed with an assay buffer containing 0.1% bovine serum albumin, the radioactivity on the glass filter was measured by a liquid scintillation counter. Nonspecific binding was measured in the presence of 2.0 μM CP-55,940 (manufactured by Tocris). 50% inhibitory concentration (IC50 value) of the test compound for the specific binding was obtained.

T1 sequence (P34972 whole entry): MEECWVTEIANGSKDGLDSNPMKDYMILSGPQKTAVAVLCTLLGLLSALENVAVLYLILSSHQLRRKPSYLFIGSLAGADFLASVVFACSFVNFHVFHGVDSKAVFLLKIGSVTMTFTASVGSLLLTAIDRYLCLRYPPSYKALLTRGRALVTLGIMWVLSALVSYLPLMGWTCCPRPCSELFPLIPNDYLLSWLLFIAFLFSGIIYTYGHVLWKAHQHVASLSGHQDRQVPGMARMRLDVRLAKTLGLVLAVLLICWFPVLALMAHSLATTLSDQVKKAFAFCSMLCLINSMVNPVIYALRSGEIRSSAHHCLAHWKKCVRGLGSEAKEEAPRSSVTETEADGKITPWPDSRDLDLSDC

SMILES | pIC50 [1] | melting point [°C]
Cc1s/c(=N\C(=O)c2cccc(Cl)c2F)n(CC2CC2)c1C [compound 79] | 8.08 | 109 to 111
Cc1c(C(C)(C)C)s/c(=N\C(=O)c2cccc3cccnc23)n1CC1CC1 [compound 322] | 8.25 | 193 to 195
Cc1c(Br)cc/c(=N\C(=O)c2cccc(C(F)(F)F)c2F)n1CC1CC1 [compound 41] | 8.85 | 135 to 137
Cc1s/c(=N\C(=O)c2c(F)cccc2C(F)(F)F)n(CC2CC2)c1C [compound 94] | 8.54 | 111 to 113
Cc1c(C(C)(C)C)s/c(=N\C(=O)c2cc(F)c(F)cc2F)n1CC1CC1 [compound 283] | 8.23 | 78 to 79
CCOc1ccc(C(F)(F)F)cc1C(=O)/N=c1\sc(C(C)(C)C)c(C)n1CC1CC1 [compound 268] | 8.96 | 140 to 142
Cc1ccc(F)cc1C(=O)/N=c1\sc(C(C)(C)C)c(C)n1C [compound 138] | 7.92 | 145 to 146
Cc1c(C(=O)/N=c2\cc(C(C)(C)C)n(C)n2CC2CCC2)cccc1C(F)(F)F [compound 483] | 8.08 | 133 to 134
Cc1c(C(C)(C)C)s/c(=N\C(=O)c2cc(C(F)(F)F)ccc2Cl)n1CC1CC1 [compound 257] | 8.89 | 100 to 102
COCCn1c(C)c(C(C)C)s/c1=N\C(=O)c1cccc(C(F)(F)F)c1F [compound 114] | 8.80 | 132 to 134
Cc1c(C(C)(C)C)s/c(=N\C(=O)c2cc(F)ccc2C(F)(F)F)n1C [compound 143] | 8.13 | 83 to 85
Cc1cccc(C(=O)/N=c2\sc(C(C)(C)C)c(C)n2CC2CC2)c1 [compound 179] | 7.75 | 132 to 134
Cc1s/c(=N\C(=O)c2cc(F)c(F)cc2Cl)n(CC2CC2)c1C [compound 85] | 7.72 | 161 to 163
Cn1c(C(C)(C)C)c/c(=N\C(=O)c2cccc(Cl)c2Cl)n1CC1CCCC1 [compound 484] | 8.57 | 168 to 169
Cc1ccc(C(=O)/N=c2\sc(C(C)(C)C)c(C)n2CC2CC2)c(C)c1 [compound 216] | 8.77 | 100 to 101
Cc1c(Cl)cccc1C(=O)/N=c1\sc(C(C)(C)C)c(C)n1C [compound 139] | 8.13 | 161 to 162
Cc1c/c(=N\C(=O)c2cccc(C(F)(F)F)c2F)n(CC2CC2)c(C)c1Br [compound 46] | 8.92 | 121 to 122
CCn1c(C)c(C(C)(C)C)s/c1=N\C(=O)c1cccc(C(F)(F)F)c1F [compound 165] | 8.37 | 97 to 99
COCCOc1ccc(C(F)(F)F)cc1C(=O)/N=c1\sc(C(C)(C)C)c(C)n1CC1CC1 [compound 270] | 9.15 | 108 to 110
Cc1c(C(C)(C)C)s/c(=N\C(=O)c2cc(I)ccc2F)n1CC1CC1 [compound 231] | 8.52 | 95 to 96
Cc1c(C(C)(C)C)s/c(=N\C(=O)c2cc(Cl)ncc2Cl)n1CC1CC1 [compound 307] | 9.00 | 110 to 112
Cc1c(C(C)(C)C)s/c(=N\C(=O)c2cc(F)ccc2Cl)n1C [compound 130] | 8.07 | 125 to 126
Cc1c(C(C)(C)C)s/c(=N\C(=O)c2cc(C(F)(F)F)ccc2N(C)C)n1CC1CC1 [compound 277] | 8.05 | 126 to 128
COc1ccc(Cl)cc1C(=O)/N=c1\sc(C(C)(C)C)c(C)n1C [compound 146] | 8.18 | 177 to 179
Cc1c(C(C)(C)C)s/c(=N\C(=O)c2ccc(C#N)cc2)n1CC1CC1 [compound 210] | 7.80 | 125 to 126
Cc1c(C(C)(C)C)s/c(=N\C(=O)c2ccccc2C(F)(F)F)n1C [compound 117] | 8.25 | 74 to 76
Cc1c(C(C)(C)C)s/c(=N\C(=O)c2cc(C(F)(F)F)ccc2OC(C)C)n1CC1CC1 [compound 269] | 8.44 | 106 to 108
Cc1cccc(Br)c1C(=O)/N=c1\oc(C(C)(C)C)c(C)n1CC1CC1 [compound 248] | 8.25 | 89 to 90
Cc1c(C(C)(C)C)s/c(=N\C(=O)C2=C(NCCO)C=CC(C(F)(F)F)C2)n1CC1CC1 (stereo not drawn) [compound 272] | 8.30 | 131 to 133
Cc1c(C(C)C)s/c(=N\C(=O)c2cccc(C(F)(F)F)c2F)n1CC1CC1 [compound 113] | 8.96 | 64 to 66
